Reference: patent publication US9096550B2, “Bryostatin analogues and methods of making and using thereof” (UNIVERSITY OF UTAH RESEARCH FOUNDATION, priority 2008, dated 2015)

System: LNCaP cells
Experiment: Apoptosis of LNCaP cells (Yo-Pro-1/7-AAD flow cytometry)
Format: cell-based, human
Conditions: 48 hr; for induction of apoptosis in LNCaP cells: compound alone
Method: FIGS. 12A-D show the effect of different compounds on the proliferation and apoptosis of LNCaP cells. […] Time-elapsed images were taken with an Incucyte imaging system every hour for 4 days. The proliferation of LNCaP cells is presented as increase in confluency (read by the instrument) at 80 hrs. Data represent the means+SEM of three independent experiments. […] Apoptosis was measured 2 days after treatment by flow cytometry using 7-AAD and Yo-Pro-1 as described in Materials and Methods. Data represent the means+SEM of three independent experiments.
LNCaP cells treated for 48 hours with the different drugs or with DMSO as control were washed and re-suspended in phosphate buffered saline. Yo-Pro-1 (Invitrogen, Carlsbad, Calif.) was added to a final concentration of 1 μM and the cells were incubated for 20 min at 4° C. in the dark. 7-Aminoactinomycin D (7-AAD) (Invitrogen, Carlsbad, Calif.) was then added at a 5 μg/mL final concentration 10 minutes before analysis by flow cytometry using the FACSCalibur system (Becton Dickinson, Mountain View, Calif.). Data were analyzed with FlowJo 7 (Tree Star Inc., Ashland, Oreg.). The Yo-Pro-1 positive cells were considered apoptotic and were expressed as % of total cells. Western blot analysis of treated LNCaP cell lysates was performed as described previously using rabbit anti-cFos, rabbit anti-PKC delta, rabbit anti-phospho-tyrosine 311 of PKC delta or rabbit anti-β-actin antibodies.

## CCC/C=C/C=C/C(=O)O[C@H]1/C(=C/C(=O)OC)C[C@H]2C[C@H]([C@@H](C)O)OC(=O)C[C@H](O)C[C@@H]3C[C@H](OC(C)=O)C(C)(C)[C@](O)(C[C@@H]4C/C(=C/C(=O)OC)C[C@H](/C=C/C(C)(C)[C@]1(O)O2)O4)O3 [bryostatin 1]
300 nM PMA in combination with 1000 nM compound
  block of induction of apoptosis by PMA in LNCaP cells: largely blocked the induction of apoptosis by PMA
  induction of apoptosis in LNCaP cells: little effect

## CCCCCCCCCCCCCC(=O)O[C@@H]1[C@@H](C)[C@@]2(O)[C@@H](C=C(CO)C[C@]3(O)C(=O)C(C)=C[C@@H]23)[C@@H]2C(C)(C)[C@]12OC(C)=O [PMA]
  induction of apoptosis in LNCaP cells: induced apoptosis
